From patent US20070142396A1, “Treatment of pain with 1-[3-[4-(3-chlorophenyl)-1-piperazinyl]propyl]-5-methoxy-3,4-dihydro-2(1H)-quinolone or salt thereof” (Vela Pharmaceuticals, Inc., priority 2005, published 2007)

Key:
[1] = test system: rats with L5 spinal nerve ligation (SNL model); assay: Spinal nerve ligation (L5) neuropathic pain model, von Frey filaments, dose range (Example 5); assay type: in vivo, rat; details: gabapentin 100 mg/kg p.o.
Excerpt: (§1) The spinal nerve ligation (SNL) model of neuropathic pain was produced in all rats as described by Kim and Chung (Pain, 50, 355-363, 1992). Briefly, under gaseous anesthesia using halothane (3% for induction and 1.5% for maintenance) in oxygen, the left L5 spinal nerve was exposed by removing the paraspinal muscles and the transverse process of the L6 vertebra. The very proximal portion of the L5 spinal nerve was tightly ligated with 6-0 silk suture. The wounds were closed and anesthesia was discontinued. Rats were kept on a heated blanket until they had completely recovered from anesthesia.
Behavioral tests were conducted in a non-blind fashion. The foot withdrawal threshold to mechanical stimuli applied to the paw (mechanical threshold) was measured, as an indicator of mechanical sensitivity of the affected paw. The foot withdrawal threshold was measured using von Frey filaments. It is generally thought that von Frey filaments are more sensitive than electronic von Frey probes for measuring tactile stimulation. The mechanical thresholds were measured by using the “up-and-down” method (Chaplan et al., J. Neurosci. Methods 53(1):55-63, 1994), following the procedures described in previous studies (Park et al., Pain 87(2):171-179, 2000; Xie et al., J. Pain 2(5):270-278, 2001; Baik et al., J. Pain 4:212-221, 2003). In brief, rats were placed in a transparent plastic box on a metal wire mesh floor. To determine the threshold stiffness required for 50% paw withdrawal, a series of eight von Frey filaments with approximately equal logarithmic incremental (0.22) von Frey values (3.65, 3.87, 4.10, 4.31, 4.52, 4.74, 4.92, and 5.16) were used. Von Frey (VF) values are logarithmically related to gram (g) values (VF=log (10,000×g)). The chosen von Frey values are therefore equivalent to 0.45, 0.74, 1.26, 2.04, 3.31, 5.50, 8.32, and 14.45 in gram value, respectively. Starting with filament 4.31, von Frey filaments were applied perpendicularly to the ventral surface of the proximal part of the third or fourth toe for 2-3 seconds. Whenever a positive response to a stimulus occurred (paw withdrawal), the next smaller von Frey hair was applied. Whenever a negative response occurred, the next larger one was applied. The test was continued until the response of six stimuli after the first change in response had been obtained or the test had reached either end of the spectrum of the von Frey set.
The 50% threshold value was then calculated using Dixon's formula (Dixon, Ann. Rev. Phar. Tox. 20:441-462, 1980): 50% threshold=X+kd, where X is the value of the final von Frey hair used (in log units), k is the tabular value for the pattern of positive/negative responses, and d is the mean difference between stimuli in log units (0.22). In the cases where continuous positive or negative responses were observed all the way out to the end of the stimulus spectrum, values of 3.54 or 5.27 were assigned, respectively, by assuming a value of (−/+) 0.5 for k in these cases (Dixon, supra, 1980). Outcome of behavioral data were expressed as von Frey values (maximum range from 3.54 to 5.27) and plotted in a linear scale.
Data were expressed as the mean±standard errors of mean (SEM). Differences in mechanical thresholds at various times after injections were tested using two-way (time and group factors) analysis of variance (ANOVA), followed by the Duncan's post-hoc test for multiple comparisons. Statistical analyses were done using the SAS® software program (SAS Institute Inc, Cary, N.C.). Two-tailed p-values<0.05 were considered to be significant.
This experiment was conducted on 8 rats in a Latin-square design examining a dose response of OPC-14523. Gabapentin was prepared at 10 mg/ml in 0.5% tragacanth and administered at 100 mg/kg p.o. Behavioral tests were conducted in a blind fashion twice (1 day and 1 hour) before as well as 1 and 4 days after the neuropathic surgery. […] These 8 rats were randomly divided into 6 groups of 1-2 rats. […]

[2] = test system: rats with L5 spinal nerve ligation (SNL model); assay: Spinal nerve ligation (L5) neuropathic pain model, mechanical threshold with von Frey filaments (Example 4); assay type: in vivo, rat; details: gabapentin 50 mg/kg i.p.
Excerpt: A total of 18 Sprague-Dawley (CD sub-strain) young adult (weight: 150-175 g) male rats were purchased from Harlan Sprague Dawley Company (Indianapolis, Ind.), Alabama colony. The rats were kept three per cage and had free access to food and water. Animals were kept in a room with a reversed light-dark cycle (light: 8:00 PM-8:00 AM) for 1 week before experimental manipulations. Ten rats were allocated to the present study. Eight rats were allocated to the study of Example 5, below.
as §1
OPC-14523 was dispersed in 0.5% tragacanth in distilled water at 20 mg/ml. It was administered as a oral injection in a dose of 100 mg/kg body weight. Gabapentin was prepared at 10 mg/ml in saline and was administered at 50 mg/kg body weight i.p. Gabapentin is a drug that was originally developed as an anticonvulsant but is now widely used as an analgesic for neuropathic pain (Abdi et al., Anesthesia & Analgesia 87:1360-1366 (1998)).
Ten rats were utilized in a Latin-square-design study comparing the activity of OPC-14523 and other compounds against neuropathic pain. Behavioral tests were conducted twice (1 day and 1 hour) before, as well as 1 and 4 days after, the neuropathic surgery. […] The ten rats were randomly divided into five groups of two rats each. […]
This procedure was repeated five times. […] The result was that all ten animals received each of the indicated five compounds in random order and then had mechanical thresholds determined at the indicated times.
Behavioral tests were conducted in a non-blind fashion. The foot withdrawal threshold to mechanical stimuli applied to the paw (mechanical threshold) was measured, as an indicator of mechanical sensitivity of the affected paw. The foot withdrawal threshold was measured using von Frey filaments. […] The mechanical thresholds were measured by using the “up-and-down” method (Chaplan et al., J. Neurosci. Methods 53(1):55-63, 1994), following the procedures described in previous studies (Park et al., Pain 87(2):171-179, 2000; Xie et al., J. Pain 2(5):270-278, 2001; Baik et al., J. Pain 4:212-221, 2003). […]

NCC1(CC(=O)O)CCCCC1 [Gabapentin, gabapentin, reference compound]
effect on mechanical threshold of the lesioned paw for foot withdrawals [1]: significant increase | level of mechanical threshold increase relative to threshold prior to ligation [2]: about half of the mechanical threshold observed prior to the ligation | effect on mechanical threshold of the lesioned paw for foot withdrawals ([2]; 0.5-6 hours): significantly increased
